Assay results from patent publication US6544976B1, “Neurotrophic 2-azetidinecarboxylic acid derivatives, and related compositions and methods” (Ortho-McNeil Pharmaceutical, Inc., priority 1999, dated 2003).

Experiments:
DRG = assay: Dorsal root ganglion (DRG) culture, neurite outgrowth; format: cell-based, CD rats; set-up: key: + = Positive results for each experiment; − = Negative results for each experiment; NA = Not active; conditions: test compound 50-250 nM; neurite outgrowth examined on days 1-5; positive (+) if compound induced neurites of ≧1 diameter of the DRG
Protocol: DRG are dissected from newborn or 1-day-old CD rats and placed into PBS on ice. After rinsing twice with sterile plating medium, DRG are transferred to empty wells of a 6-well plate coated with polyomithine/laminin (Becton Dickinson Labware) using #7 curved forceps. Three ml/well of plating medium are then added very gently, so as not to disturb the DRG. Plating medium is Leibovitz's L-15 medium (Gibco), plus 0.6% glucose, 33 mM KCl, 10% FCS, 10 mM Hepes and penicillin/streptomycin/glutamine. After overnight incubation at about 37° C. in 5% CO2, this medium is replaced with 3 mL/well of assay medium [Leibovitz's L-15 medium plus 0.6% glucose, 1% FCS, 1% N-2 supplement (Gibco), […], 10 mM Hepes, and penicillin/streptomycin/glutamine] containing either vehicle (DMSO, 1/200,000), positive control (2-4 ng/mL NGF) or test compound (50-250 nM). All media are prepared fresh daily. DRG are microscopically examined for neurite outgrowth on days 1-5.

[1] = tested on: Human M17 Neuroblastoma Cells; assay: Neurite outgrowth assay (MAP-2 immunofluorescence) in M17 neuroblastoma cells; format: cell-based; conditions: MAP-2 fluorescence, active if greater than mean DMSO-treated control on same plate, NA = Not active
Protocol: M17 human neuroblastoma cells are cultured in 1:1 ratio of EMEM and Ham's F12 with 1×NEAA and 10% FBS. The culture media contains 1×PSN antibiotic and is exchanged every other day, and the cells are passed in log phase near confluence.
(§1) Cultures are incubated with normal horse serum (1:50; Vector Labs) for about 20 min, rinsed and then incubated with primary antibody, microtubule associated-protein 2 (anti-mouse MAP-2; 1:1000; Chemicon) for about 2 h at about RT. Following primary antibody, cultures are rinsed and incubated with fluorescein anti-mouse IgG (rat absorbed; 1:50; Vector Labs) for about 1 h. After fluorescein incubation, the cultures are rinsed and read in PBS on a fluorescent plate reader (excitation: 485 nm; emission: 530 nm). A compound is regarded as active if the neurite outgrowth response is greater than the mean DMSO-treated control response on the same plate. The response to test compound is reported as percent of DMSO-treated control (absent the percentage sign). The signal-to-noise separation is consistent: the fluorescence from DMSO control wells is at least two-fold greater than blank wells.

[2] = tested on: Primary Rat Hippocampal Cells; assay: Neurite outgrowth assay (MAP-2 immunofluorescence) in primary rat hippocampal cells; format: cell-based; conditions: MAP-2 fluorescence, active if greater than mean DMSO-treated control on same plate, NA = Not active
Protocol: Hippocampal cells are dissected from the brains of embryonic day 18 rat pups and dissociated with trypsin (1 mg/mL) and trituration. Cells are seeded at 30,000 cells/well in 96-well plates filled with 100 μL MEM and 10%FBS. At 7 days in culture, cells are fixed with 4% paraformaldehyde and immunofluorescence is performed.
as §1

facial nerve = assay: Rat facial nerve compression model; format: in vivo, Long-Evans rats; conditions: p.o. about 20 mg/kg twice a day for 15 days after surgery; compared to vehicle and internal control; FIG. 1
Protocol: In this model, compressing the facial nerve causes paralysis of the whisker muscle on that side of the face. The untreated facial nerve on the other side functions as an internal control. […] The whisker movement recovery rate on the paralyzed side compared to the vehicle and internal control is shown in this FIGURE.
Long-Evans rats are anesthetized under ketamine (60 mg/kg)/xylazine (6 mg/kg). The facial nerve is exposed and mechanically compressed with forceps near the stylomastoid foramen unilaterally with the opposite, non-lesioned side serving as an internal control. […] Rats received test compound p.o. at about 20 mg/kg twice a day for 15 days after the surgery. Control rats received vehicle only. Three to eight rats are tested in each group. Restoration of whisker movement after the treatment with compounds of the present invention is recorded at different post-operative time points daily, up to two weeks, and is shown in FIG. 1.

PC12 cells = conditions: cultures of PC12 cells; cited from earlier work
sensory ganglia = conditions: cultures of sensory ganglia; cited from earlier work

Row | Structure (SMILES) | M17 Cell Response [1] | Rat Hippocampal Cell Response [2] | also measured
1 | CCC(C)(C)C(=O)C(=O)N1CC[C@H]1C(=O)OC(C)(C)CCc1cccnc1 [Compound 2, (2S)-[3-(3-Pyridyl)-1,1-dimethyl-1-propyl]-1-(1,2-dioxo-3,3-dimethylpentyl)azetidine-2-dicarboxylate] | 134% of DMSO-treated control | – | DRG (DRG): +
2 | CCC(C)(C)C(=O)C(=O)N1[C@H](C(=O)OCCCCc2ccc(OC)cc2)C[C@H]1C(=O)OCCCCc1ccc(OC)cc1 [Compound 21, (2S,4S)-Bis-[4-(4-methoxyphenyl)-1-butyl]-1-(1,2-dioxo-3,3-dimethylpentyl)azetidine-2,4-dicarboxylate] | 103% of DMSO-treated control | – | –
3 | CCC(C)(C)C(=O)C(=O)N1CC[C@H]1C(=O)OCCCCc1ccc(OC)cc1 [Compound 4, (2S)-[4-(4-Methoxyphenyl)-1-butyl]-1-(1,2-dioxo-3,3-dimethylpentyl)azetidine-2-carboxylate] | 107% of DMSO-treated control | – | –
4 | CC(C)(C)C(=O)C(=O)N1CC[C@H]1C(=O)OCCCc1cccnc1 [Compound 10, (2S)-[3-(3-Pyridyl)-1-propyl]-1-(1,2-dioxo-3,3-dimethylbutyl)azetidine-2-carboxylate] | – | 123% of DMSO-treated control | –
5 | CCC(C)(C)C(=O)C(=O)N1C(C(=O)OCCCc2cccnc2)C[C@H]1C(=O)OCCCc1cccnc1 (stereo partly drawn) [Compound 18, (2S,4R)-Bis-[3-(3-pyridyl)-1-propyl]-1-(1,2-dioxo-3,3-dimethylpentyl)azetidine-2,4-dicarboxylate] | 106% of DMSO-treated control | 137% of DMSO-treated control | –
6 | O=C(C(=O)N1CC[C@H]1C(=O)OCCCc1cccnc1)c1cccs1 [Compound 11, (2S)-[3-(3-Pyridyl)-1-propyl]-1-[1,2-dioxo-2-(thien-2-yl)ethyl]azetidine-2-carboxylate] | – | 114% of DMSO-treated control | –
7 | CC(C)(C)NC(=O)N1CC[C@H]1C(=O)OCCCc1cccnc1 [Compound 7] | – | 123% of DMSO-treated control | –
8 | CCC(C)(C)C(=O)C(=O)N1CC[C@H]1C(=O)OCCCc1cccnc1 [Compound 1, (2S)-[3-(3-Pyridyl)1-propyl]-1-(1,2-dioxo-3,3-dimethylpentyl)azetidine-2-carboxylate] | 140% of DMSO-treated control | – | DRG (DRG): +; Restoration of whisker movement on the paralyzed side (facial nerve): restored more rapidly
9 | CCC(C)(C)C(=O)C(=O)N1CC[C@H]1C(=O)OCCC(c1ccccc1)c1ccccc1 [Compound 3, (2S)-(3,3-Diphenyl-1-propyl)1-(1,2-dioxo-3,3-dimethylpentyl) azetidine-2-carboxylate] | 110% of DMSO-treated control | 119% of DMSO-treated control | –
10 | CCC(C)(C)C(=O)C(=O)N1CC[C@H]1c1nnnn1CCCc1cccnc1 [Compound 14, (2S)-1-(1,2-Dioxo-3,3-dimethylpentyl)2-(1-[3-(3-pyridyl)-1-propyl]-1H-tetrazol-5-yl)azetidine] | – | 118% of DMSO-treated control | –
11 | Cc1cc(C(=O)N2CC[C@H]2C(=O)OCCCc2cccnc2)nn1C [Compound 13, (2S)-[3-(3-Pyridyl)-1-propyl]-1-[(1,5-dimethylpyrazol-3-yl)carbonyl]azetidine-2-carboxylate] | – | 123% of DMSO-treated control | –
12 | CCC(C)(C)C(=O)C(=O)N1C(C(=O)OCCCc2cccnc2)C[C@@H]1C(=O)OCCCc1cccnc1 (stereo partly drawn) [Compound 20, (2R,4R)-Bis-[3-(3-pyridyl)-1-propyl]-1-(1,2-dioxo-3,3-dimethylpentyl)azetidine-2,4-dicarboxylate] | 103% of DMSO-treated control | – | –
13 | COc1ccc(CCCCOC(=O)[C@@H]2C[C@@H](C(=O)OCCCCc3ccc(OC)cc3)N2C(=O)C(=O)c2ccccc2)cc1 [Compound 15, (2S,4S)-Bis-[4-(4-methoxyphenyl)-1-butyl)-1-(1,2-dioxo-2-phenylethyl)azetidine-2,4-dicarboxylate] | – | 126% of DMSO-treated control | –
14 | C=CC[C@@H]1/C=C(\C)C[C@H](C)C[C@H](OC)[C@H]2O[C@@](O)(C(=O)C(=O)N3CCCC[C@H]3C(=O)O[C@H](/C(C)=C/[C@@H]3CC[C@@H](O)[C@H](OC)C3)[C@H](C)[C@@H](O)CC1=O)[C@H](C)C[C@@H]2OC [FK506] | – | – | neurotrophic activity (PC12 cells): shows neurotrophic activity; neurotrophic activity (sensory ganglia): shows neurotrophic activity
15 | O=C(C(=O)N1CC[C@H]1C(=O)OCCCc1cccnc1)c1ccccc1 [Compound 9] | – | 112% of DMSO-treated control | –
16 | CCC(C)(C)C(=O)C(=O)N1[C@@H](C(=O)OCCC(c2ccccc2)c2ccccc2)C[C@H]1C(=O)OCCC(c1ccccc1)c1ccccc1 [Compound 17, (2S,4R)-Bis-(3,3-diphenyl-1-propyl)-1-(1,2-dioxo-3,3-dimethylpentyl)azetidine-2,4-dicarboxylate] | 106% of DMSO-treated control | – | –
17 | CCC(C)(C)C(=O)C(=O)N1[C@@H](C(=O)OCCCCc2ccc(OC)cc2)C[C@H]1C(=O)OCCCCc1ccc(OC)cc1 [Compound 16, (2S,4R)-Bis-[4-(4-methoxyphenyl)-1-butyl]-1-(1,2-dioxo-3,3-dimethylpentyl)azetidine-2,4-dicarboxylate] | 114% of DMSO-treated control | – | –
18 | CCC(C)(C)C(=O)C(=O)N1[C@@H](C(=O)OCCCCc2ccc(OC)cc2)C[C@@H]1C(=O)OCCCCc1ccc(OC)cc1 [Compound 19, (2R,4R)-Bis-[4-(4-methoxyphenyl)-1-butyl]-1-(1,2-dioxo-3,3-dimethylpentyl)azetidine-2,4-dicarboxylate] | 111% of DMSO-treated control | – | –
